These results are taken from patent US20150018403A1, “FLUORENE-AMIDE COMPOUNDS AND PHARMACEUTICAL USE THEREOF” (JAPAN TOBACCO INC., priority 2013, published 2015).

A word on the IC50: it is the concentration that inhibits the measured activity by half. The term inhibition denotes the relative decrease from the control value, in per cent.

One data set deals with T1, human PDHK2 (hPDHK2) (Homo sapiens, UniProt Q15119).
T1 construct: made in house; host or cells: Escherichia coli BL21(DE3), pET17b vector
In words: Inhibitory action of PDHK2 activity in vitro (residual PDH activity after kinase reaction). The data set is classed as biochemical. The method, then:
The inhibitory action of PDHK activity was assessed indirectly by measuring the residual PDH activity after kinase reaction in the presence of a test compound.
In the case of human PDHK2 (hPDHK2, Genbank Accession No. BC040478.1), modified hPDHK2 cDNA wherein FLAG-Tag sequence was added to the N terminus of hPDHK2 cDNA clone (pReceiver-M01/PDK2-GeneCopoeia) was prepared by PCR and cloned into a vector (pET17b-Novagen). The recombinant construct was transformed into Escherichia coli (DH5α-TOYOBO). The recombinant clones were identified, and plasmid DNA was isolated and subjected to the DNA sequence analysis. One clone which had the expected nucleic acid sequence was selected for expression work.
For expression of hPDHK2 activity, Escherichia coli strain BL21(DE3) cells (Novagen) were transformed with the pET17b vector containing modified hPDHK2 cDNA. The Escherichia coli were grown to an optical density 0.6 ([…]) at 30° C. Protein expression was induced by the addition of 500 μmol/L isopropyl-β-thiogalactopyranoside. The Escherichia coli were cultured at 30° C. for 5 hr and harvested by centrifugation. Resuspension of the Escherichia coli paste was disrupted by a microfluidizer. FLAG-Tagged protein was purified using FLAG affinity gel. The gel was washed with 20 mmol/L HEPES-NaOH, 500 mmol/L sodium chloride, 1% ethylene glycol, and 0.1% Pluronic F-68 (pH 8.0), and the binding protein was eluted with 20 mmol/L HEPES-NaOH, 100 μg/mL FLAG peptide, 500 mmol/L sodium chloride, 1% ethylene glycol, and 0.1% Pluronic F-68 (pH 8.0). The eluted fractions containing FLAG-Tagged protein were pooled, dialyzed against 20 mmol/L HEPES-NaOH, 150 mmol/L sodium chloride, 0.5 mmol/L EDTA, 1% ethylene glycol, and 0.1% Pluronic F-68 (pH 8.0), and preserved at −80° C.
0.05 U/mL PDH and 0.8 μg/mL hPDHK2 were mixed in a buffer (50 mmol/L 3-morpholinopropanesulfonic acid (pH 7.0), 20 mmol/L dipotassium hydrogen phosphate, 60 mmol/L potassium chloride, 2 mmol/L magnesium chloride, 0.4 mmol/L EDTA, and 0.2% Pluronic F-68, 2 mmol/L dithiothreitol), and the mixture was incubated at 4° C. overnight to obtain a PDH/hPDHK2 complex. The test compounds were diluted with DMSO. […] DMSO (1.5 μL) was added to control wells instead of the test compound. […] The mixture was incubated at room temperature for 90 min, and the residual PDH activity was measured. The absorbance at 340 nm before and after PDH reaction was measured using a microplate reader to detect NADH produced by the PDH reaction. The hPDHK2 inhibition rate (%) of the test compound was calculated from the formula [{(PDH activity of test compound−PDH activity of control)/PDH activity of blank−PDH activity of control)}×100].

The test system of the next data set is tissue PDH activity. In words: Ex vivo PDH activation assay (liver and epididymal adipose tissue mitochondrial fractions after oral dosing). The data set is classed as in vivo, Sprague-Dawley rats. Particulars: 3 mg/kg, rat. The method, then: The action of test compound on tissue PDH activity was evaluated. NADH production was detected via p-iodonitrotetrazolium violet (INT)-coupled system to measure PDH activity.
Normal male Sprague-Dawley rats were randomly allocated m to the vehicle group and the test compound groups. The vehicle (0.5% aqueous methylcellulose solution, 5 mL/kg) or the test compound was orally administered to the rats. At 5 or 20 hr after administration, the rats were anesthetized with an intraperitoneal injection of sodium pentobarbital (60 mg/kg), and liver slices and epididymal adipose tissues were collected.
To the liver slices were rapidly added 9 volumes of ice-cold homogenization buffer (0.25 mol/L sucrose, 5 mmol/L tris(hydroxymethyl)aminomethane hydrochloride (pH 7.5), 2 mmol/L EDTA), and the mixtures were homogenized using a Polytron homogenizer. The homogenates were centrifuged at 600×g, 4° C. for 10 min to obtain the supernatant. The supernatants (1 mL) were centrifuged at 16,000×g, 4° C. for 10 min to collect the precipitates. The precipitates were washed by resuspension in the homogenization buffer (1 mL) and centrifuged in the same manner. The precipitates were frozen with liquid nitrogen and stored at −80° C. as the liver mitochondrial fraction.
To the adipose tissues were rapidly added 3 volumes of an ice-cold homogenization buffer, and the mixtures were homogenized using a Polytron homogenizer. The homogenates were centrifuged at 600×g, 4° C. for 10 min to obtain the supernatant. The supernatants were centrifuged at 16,000×g, 4° C. for 10 min to collect the precipitates. The precipitates were washed by resuspension in the homogenization buffer (1 mL) and centrifuged in the same manner. The precipitates were frozen with liquid nitrogen and stored at −80° C. as the adipose tissue mitochondrial fraction.
The mitochondrial fractions were thawed and suspended with the sample buffer (0.25 mol/L sucrose, 20 mmol/L tris(hydroxymethyl)aminomethane hydrochloride (pH 7.5), 50 mmol/L potassium chloride, and 1 mL/L 4-(1,1,3,3-tetramethylbutyl)phenyl-polyethylene glycol (Triton X-100)). Active PDH activity (PDHa activity) and total PDH activity (PDHt activity) were measured to evaluate the PDH activity. For the measurement of the PDHt activity, equal amounts of the mitochondrial suspension and the activation buffer (0.25 mol/L sucrose, 20 mmol/L tris(hydroxymethyl)aminomethane hydrochloride (pH 7.5), 50 mmol/L potassium chloride, 1 mL/L Triton X-100, 4 mmol/L calcium chloride, 40 mmol/L magnesium chloride, 10 mmol/L sodium dichloroacetate) were mixed, and the mixtures were incubated at 37° C. for 10 min. Forty microliters of the mitochondrial suspensions diluted with a sample buffer were added to a 96-well microplate for activity measurement and blank measurement. Then 180 μL of the reaction mixture (0.056 mmol/L potassium phosphate buffer (pH 7.5), 5.6 mmol/L DL-carnitine, 2.8 mmol/L NAD, 0.22 mmol/L thiamin pyrophosphate, 0.11 mmol/L Coenzyme A, 1.1 mL/L Triton X-100, 1.1 mmol/L magnesium chloride, 1.1 g/L bovine serum albumin, 0.67 mmol/L INT, 7.2 μmol/L phenazine methosulfate, 28 mmol/L sodium oxamate) was added to each well, and then 20 μL of 50 mmol/L sodium pyruvate for activity measurement or water for blank measurement were added. The mixtures were incubated at room temperature under shading. The absorbances at 500-750 nm, which were attributable to reduction of INT, the final electron acceptor, were measured using a microplate reader over time and the changes in the absorbance were calculated. The PDH activity was calculated by subtraction of the change in absorbance of the blank well from that of the activity measurement well. The percentage of the PDHa activity to the PDHt activity was calculated and taken as an index of the PDH activation.

Data set [1] in a line: Metabolic stability test in human liver microsome. Format: in vitro ADME. The following applies: 37° C., 5 μM. The method, then: Human liver microsome (manufactured by Xenotech, H0620, final concentration (after dilution), 0.2 mg protein/mL) was suspended in 100 mM potassium phosphate buffer (pH 7.4, containing β-nicotinamide adenine dinucleotide phosphate: 1.3 mM, D-glucose-6-phosphate: 3.3 mM, magnesium chloride: 3.3 mM, glucose-6-phosphate dehydrogenase: 0.45 U/mL), and further mixed with a test compound dissolved in MeCN/DMSO (95/5) (final concentration 5 μM). The mixture was incubated at 37° C. for 10 min and 60 min, acetonitrile containing formic acid (final concentration 0.1%) was added, and the mixture was centrifuged. The test compound (unmodified) in the supernatant was measured by high performance liquid chromatography/mass spectrometry (LC/MS) (manufactured by Waters, LC: Acquity UPLC, MS:SQ Detector or TQ Detector). The residual ratio (%) was calculated from the obtained measurement value.
(In general: Liver microsomes are a subcellular fraction often used to study metabolism.)

A short description of data set [2]: Metabolic stability test in rat liver microsome. The data set is classed as in vitro ADME.
In the next data set the target is T2, hERG (Homo sapiens, UniProt Q12809).
T2 construct: host or cells: HEK293
T2 sequence (Q12809 whole entry): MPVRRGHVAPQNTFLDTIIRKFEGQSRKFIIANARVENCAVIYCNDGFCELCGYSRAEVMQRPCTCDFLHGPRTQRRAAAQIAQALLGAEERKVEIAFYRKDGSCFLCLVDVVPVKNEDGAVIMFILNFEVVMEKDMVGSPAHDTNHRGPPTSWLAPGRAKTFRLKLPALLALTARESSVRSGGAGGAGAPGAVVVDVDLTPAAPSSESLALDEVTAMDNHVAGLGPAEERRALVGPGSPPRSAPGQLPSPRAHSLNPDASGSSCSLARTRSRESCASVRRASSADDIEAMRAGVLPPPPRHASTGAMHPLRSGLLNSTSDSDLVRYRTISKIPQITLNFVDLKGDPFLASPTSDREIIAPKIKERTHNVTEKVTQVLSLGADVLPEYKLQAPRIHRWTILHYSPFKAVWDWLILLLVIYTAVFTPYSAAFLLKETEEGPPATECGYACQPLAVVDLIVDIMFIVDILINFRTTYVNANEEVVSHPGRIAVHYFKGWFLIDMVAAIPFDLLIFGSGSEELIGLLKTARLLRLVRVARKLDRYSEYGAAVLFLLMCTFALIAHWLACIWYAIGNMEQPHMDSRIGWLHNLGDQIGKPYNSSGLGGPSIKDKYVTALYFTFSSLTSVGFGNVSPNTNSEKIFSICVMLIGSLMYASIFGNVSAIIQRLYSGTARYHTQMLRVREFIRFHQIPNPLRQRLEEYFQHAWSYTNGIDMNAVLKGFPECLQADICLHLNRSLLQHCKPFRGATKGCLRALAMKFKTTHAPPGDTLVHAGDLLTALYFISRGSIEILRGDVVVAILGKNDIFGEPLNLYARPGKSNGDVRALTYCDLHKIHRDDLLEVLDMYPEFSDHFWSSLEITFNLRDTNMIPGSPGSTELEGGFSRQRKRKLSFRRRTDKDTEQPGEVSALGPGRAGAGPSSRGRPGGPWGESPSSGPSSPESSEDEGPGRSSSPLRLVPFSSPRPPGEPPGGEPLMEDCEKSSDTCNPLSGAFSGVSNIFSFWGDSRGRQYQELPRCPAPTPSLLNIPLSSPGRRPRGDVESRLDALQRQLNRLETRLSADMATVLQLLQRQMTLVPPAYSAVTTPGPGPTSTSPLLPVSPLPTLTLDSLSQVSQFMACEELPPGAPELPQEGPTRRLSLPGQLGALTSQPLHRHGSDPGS
In words: hERG whole cell patch clamp test. Particulars: human, HEK293 cells transfected with hERG, pH 7.4; concentration 10 μmol/L; read-out: hERG inhibition rate (%). The data set is classed as cell-based. The method, then:
(§1) Using human ether-a-go-go related gene (hERG)-transfected HEK293 cells (Cytomyx Limited), an influence on hERG current was examined according to the whole cell patch clamp technique. The hERG-transfected HEK293 cells were passaged using a CO2 incubator (BNA-111, TABAI ESPEC CORP.) under the set conditions of 37° C., 5% CO2, saturated humidity. Culture containers used were Collagen Type I Coated 75 cm^2 flask (4123-010, AGC TECHNO GLASS CO., Ltd.) and Collagen Type I Coated 35 mm culture dish (4000-010, AGC TECHNO GLASS CO., Ltd.). The culture medium used was E-MEM (Eagle Minimum Essential Medium (Earle's Salts, Nikken biomedical laboratory) added with 10% FCS (Fetal bovine serum, BioWest, L.L.C.) and 1% MEM Non-Essential Amino Acids Solution (NEAA, Invitrogen Corporation). Geneticin for the selection of hERG gene expressing cells was added thereto to a concentration of 400 μg/mL. As the cells for the measurement, 3×10^4 hERG-transfected HEK293 cells were plated on a 35 mm culture dish 4 to 7 days before measurement of the hERG current. The culture dish produced for the measurement contained the above-mentioned culture medium without geneticin (Invitrogen Corporation).
(§2) The highest evaluation concentration of each compound was determined from the highest concentration at which precipitation was not found in the standard extracellular fluid (NaCl: 140 mmol/L, KCl: 2.5 mmol/L, MgCl2: 2 mmol/L, CaCl2: 2 mmol/L, HEPES: 10 mmol/L, glucose: 10 mmol/L (adjusted to pH 7.4 with Tris-base)). As the application method, each solution to be applied was ejected from a Y-tube having a tip diameter of about 0.25 mm, which was adjacent (about 2 mm) to the cells, and applied to the cells. The ejection rate was about 0.4 mL/min.
(§3) The experiment was performed at room temperature under a phase contrast microscope. The 35 mm culture dish plated with the cells was set on a measurement apparatus, and the standard extracellular fluid was continuously applied to the cells from the Y-tube. A glass electrode for the measurement was filled with an intracellular fluid (Potassium Gluconate: 130 mmol/L, KCl: 20 mmol/L, MgCl2: 1 mmol/L, ATP-Mg: 5 mmol/L, EGTA: 3.5 mmol/L, HEPES: 10 mmol/L (adjusted to pH 7.2 with Tris-base)). A conventional whole cell patch clamp method was applied to the cells, and the maintenance electric potential was set to −80 mV. Under a fixed electric potential, the whole cell current was amplified by an amplifier for patch clamp (AXOPATCH-200B, Axon Instruments, Inc.), and the data was loaded into a computer (IMC-P642400, Intermedical Co., Ltd.) using a data acquisition analysis software (pCLAMP 9.2, Axon Instruments, Inc.).
(§4) The measurement of the hERG current was performed in the following two steps. In both cases, the hERG current was initiated by giving a command potential (maintenance electric potential −80 mV, prepulse+20 mV, 1.5 sec, test-pulse −50 mV, 1.5 sec).
(§5) Step (1): The above-mentioned command potential was given at 0.1 Hz for 2 min.
(§6) Step (2): The above-mentioned command potential was subjected to P/3 subtraction of pCLAMP 9.2 to remove leak current. This was repeated three times and an average thereof was taken as hERG current.
(§7) Subsequent to step (1), Step (2) was performed (about 3 min), and the maximum tail current obtained by applying a test-pulse to the hERG current obtained by the method of step (2) was taken as hERG current value. Hereafter, the operations of (1) and (2) were alternately repeated until completion of the experiment and the hERG current value was measured.
(§8) Stable hERG current value was recorded three times (about 10 min), and the standard extracellular fluid was instantaneously exchanged with each application fluid. The hERG current value was measured three times (about 10 min) in the same manner during perfusion of the application fluid, and the current value obtained by the 3rd measurement was taken as hERG current value after perfusion of the application fluid. […]
(Block of hERG is tested as a sign of cardiac risk.)

Data set [3] deals with T3, hERG current (hERG-transfected HEK293 cells) (Homo sapiens, UniProt Q12809).
T3 construct: host or cells: HEK293
T3 sequence (Q12809 whole entry): as above
In words: hERG whole cell patch clamp test. Format: cell-based. The following applies: whole cell patch clamp, hERG-transfected HEK293 cells. The method, then: as §1, §2, §3, §4, §5, §6, §7, §8

Structures are written as SMILES. Read-outs that look alike come from different tables or passages of the source.

Turning to `C[C@@H](O)COc1cc(-c2cnn(C(C)(C)C(N)=O)c2)c2c(c1)[C@@](O)(C(F)(F)F)c1ccccc1-2` [compound (3), 2-(4-{(9R)-9-hydroxy-2-[(2R)-2-hydroxypropoxy]-9-(trifluoromethyl)-9H-fluoren-4-yl}-1H-pyrazol-1-yl)-2-methylpropanamide], the IC50 at human PDHK2 (hPDHK2) (PDH/hPDHK2 complex, 45 min kinase reaction at room temperature, read-out: hPDHK2 IC50) is 4.7 nM. Further, the “PDHa activity (% PDHt activity)” value is on record as 59 ± 8 % PDHt activity with tissue PDH activity (adipose tissue, 5 hr after oral administration); 54 % PDHt activity in the data set on tissue PDH activity (adipose tissue, 20 hr after oral administration); 74 ± 11 % PDHt activity in the data set with tissue PDH activity (liver, 5 hr after oral administration); 42 % PDHt activity in the data set on tissue PDH activity (liver, 20 hr after oral administration). Further, the “stability in liver microsome (residual ratio %)” value in data set [1] (10 min) is reported as 98.3%; in data set [1] (60 min), 99.7%; in data set [2] (10 min), 99.2%; in data set [2] (60 min), 99.8%.
Consider `NC(=O)Cn1cc(-c2cc(OCCC34CC5CC(CC(O)(C5)C3)C4)cc3c2-c2ccccc2[C@]3(O)C(F)(F)F)cn1` [compound (A), 2-(4-{(9R)-9-Hydroxy-2-[2-(3-hydroxyadamantan-1-yl)ethoxy]-9-(trifluoromethyl)-9H-fluoren-4-yl}-1H-pyrazol-1-yl)acetamide, reference compound], for which the IC50 is 5.1 nM against human PDHK2 (hPDHK2) and > 10000 nM in data set [3]. On hERG, the inhibition at 10 μmol/L was 11.8%. Also, the “stability in liver microsome (residual ratio %)” value was found to be 34.8% in data set [1] (10 min), 0.0% in data set [1] (60 min), 24.8% in data set [2] (10 min) and 0.0% in data set [2] (60 min).
